Measured values: patent publication US20260241049A1, “Radiopharmaceutical Compositions Targeting Glypican-3 and Uses Thereof” (RayzeBio, Inc., priority 2023, published 2026)
Starred links: 1 amine or outer side, 2 acyl side, 3 side chain; linkers in the order of their positions; H or OH if unused. Positions of bridges follow the written chain, without caps; N, C: chain ends. Non-standard residues stand in square brackets, D forms with d. Residues, ends and D or L forms follow the SMILES beside them. Groups on a side chain read outwards from the residue. Primed or numbered codes have the meaning given here. *: point of attachment. MeHseMe″ = (2S)-4-methoxy-2-(methylamino)butanoic acid (N-methyl-O-methyl-L-homoserine), COCC[C@@H](C(=O)[*:2])N(C)[*:1]; F4aao = 4-(carboxymethoxy)-L-phenylalanine, O=C([C@H](Cc1ccc(OCC(=O)[*:3])cc1)N[*:1])[*:2]; MeHseMe = N-methyl-O-methyl-L-homoserine, COCC[C@@H](C(=O)[*:2])N(C)[*:1]; Phe(4-(1-Me-pyrazol-4-yl)) = Cn1cc(-c2ccc(C[C@H](N)C(=O)O)cc2)cn1; SulfoCy5″ = sulfo-Cyanine5 hexanoyl dye as amide on the lysine NZ; TMe = O-methyl-L-threonine, CO[C@H](C)[C@H](N[*:1])C(=O)[*:2]; NMeAla(isoquinolin-7-yl) = CN[C@@H](Cc1ccc2ccncc2c1)C(=O)O; SulfoCy5(3) = sulfo-Cyanine5 hexanoyl dye on the lysine NZ; PEG12 = NCCOCCOCCOCCOCCOCCOCCOCCOCCOCCOCCOCCOCCC(=O)O; Phe(4-CH2COOH) = N[C@@H](Cc1ccc(CC(=O)O)cc1)C(=O)O; X2 = CN([C@@H](CC1CCN(CC(=O)O)CC1)C(=O)[*:2])[*:1]; 3Pal(6-Ph) = N[C@@H](Cc1ccc(-c2ccccc2)nc1)C(=O)O; Biotin = O=C1N[C@H]2[C@H](CS[C@H]2CCCCC(=O)*)N1; Phe(4-COOH) = N[C@@H](Cc1ccc(C(=O)O)cc1)C(=O)O; Piperazinyl(4-CH2COOH) = O=C(O)CN1CCN(*)CC1; NMe2Nal = CN[C@@H](Cc1ccc2ccccc2c1)C(=O)O; AEF = NCCOc1ccc(C[C@H](N)C(=O)O)cc1; NMeI = CC[C@H](C)[C@H](NC)C(=O)O; NMeQ = CN[C@@H](CCC(N)=O)C(=O)O; NMehSer = CN[C@@H](CCO)C(=O)O; NMeK = CN[C@@H](CCCCN)C(=O)O; NMeC = CN[C@@H](CS)C(=O)O; Carboxymethyl = O=C(O)C*; NMeA = CN[C@@H](C)C(=O)O; CO = O=C([*:1])[*:2]

What was measured:
Human Glypican3-Fc = Human Glypican3-Fc (Homo sapiens, UniProt P51654); test: SPR binding to Glypican-3, Method B-3 (Glypican3-Fc captured on Protein A chip, 5-point dilution series); conditions: SPR method B-3
Procedure: A Protein A sensor chip (Cytiva) was inserted into a Biacore T200 (Cytiva), priming was performed three times with a running buffer: HBS-P+, pH 7.4 (Cytiva), and equilibration was carried out at a flow rate of 30 μL/min. Glypican3-Fc was allowed to react for 60 seconds at a flow rate of 10 μL/min. After capturing human Glypican3-Fe, a peptide solution prepared to 10 mM in DMSO solution was diluted with a running buffer to a final concentration of 10 μM. After that, 5 serial dilution series (100 nM, 50 nM, 25 nM, 10 nM, 5 nM) of peptide solutions were prepared. Using the above samples, peptide kinetics for Glypican3 was obtained by SPR measurement. Kinetics evaluation of Glypican3 was performed by SPR measurements at a flow rate of 10 LL/min, setting the association time to 120 seconds and the disassociation time to 600 seconds.
The obtained data by Method B-1, Method B-2, Method B-3 and Method B-4 were analyzed by follow. Single Cycle Kinetics was used as the kinetics evaluation model, and curve fitting was performed using Biacore T200 Evaluation Software Version 3.0 (Cytiva).

[1] = biological target: T1, Human Glypican3-Fc (ACRO Biosystems, GP3-H5258) (human, UniProt P51654 25-559); test: SPR (Biacore T200), Method B-3: Glypican3-Fc captured on Protein A chip, peptide as analyte
T1 construct: Bought fusion protein, captured in Methods B-2, B-3 and B-4; Catalogue number is printed only in Method B-2; not shown: Fc part of the bought fusion
Summary of the method: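 Human Glypican3-Fc was captured on a Protein A chip (60 s, 10 μL/min) in HBS-P+ pH 7.4. The peptide was injected as analyte at a final 10 μM at 10 μL/min, with 120 s association and 600 s dissociation. Kinetics were fitted by single-cycle kinetics.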

`CC[C@H](C)[C@@H]1NC(=O)[C@H]([C@@H](C)OC)NC(=O)[C@H](Cc2ccc(C(=O)O)cc2)NC(=O)[C@H](CNC(=O)N2CCN(CC(=O)O)CC2)N(C)C(=O)[C@H](CC(=O)O)NC(=O)[C@H](CCCCNC(=O)N2CCN(CC(=O)O)CC2)N(C)C(=O)[C@H](CCCCN)N(C)C(=O)CSC[C@@H](C(N)=O)N(C)C(=O)[C@H](Cc2ccc(-c3ccccc3)nc2)NC(=O)CNC(=O)[C@H](Cc2ccc3ccncc3c2)N(C)C(=O)[C@H](Cc2ccc(OCC(=O)O)cc2)NC1=O` [Conjugate 2-29] showed a Kd (Human Glypican3-Fc) of 1 nM.

With `CC[C@H](C)[C@@H]1NC(=O)[C@H]([C@@H](C)OC)NC(=O)[C@H](Cc2ccc(C(=O)O)cc2)NC(=O)[C@H](CCC(N)=O)N(C)C(=O)[C@H](CC(=O)O)NC(=O)[C@H](CCOC)N(C)C(=O)[C@H](C)N(C)C(=O)CSC[C@@H](C(N)=O)N(C)C(=O)[C@H](Cc2ccc(-c3ccccc3)nc2)NC(=O)CNC(=O)[C@H](Cc2ccc3ccccc3c2)N(C)C(=O)[C@H](Cc2ccc(OCCN)cc2)NC1=O` [Conjugate 2-28] ({CH2CO}-[NMeA][NMehSer](Me)D[NMeQ][Phe(4-COOH)]T(Me)I[AEF][NMe2Nal]G[3Pal(6-Ph)][NMeC]-NH2; thioether N-12) the Kd (Human Glypican3-Fc) was 0.3 nM.

In the case of `CC[C@H](C)[C@@H]1NC(=O)[C@H](Cc2ccc(C(=O)O)cc2)NC(=O)[C@H](CCC(N)=O)N(C)C(=O)[C@H](CCC(N)=O)NC(=O)[C@H]([C@@H](C)CC)N(C)C(=O)[C@H](CCCCN)N(C)C(=O)CSC[C@@H](C(N)=O)N(C)C(=O)[C@H](Cc2ccc(-c3cnn(C)c3)cc2)NC(=O)CNC(=O)[C@H](Cc2ccc3ccccc3c2)N(C)C(=O)[C@H](Cc2ccc(C(=O)O)cc2)NC(=O)[C@H]([C@@H](C)CC)NC1=O` [Conjugate 2-46] ({CH2CO}-[NMeK][NMeI]Q[NMeQ][Phe(4-COOH)]II[Phe(4-COOH)][NMe2Nal]G[Phe(4-(1-Me-pyrazol-4-yl))][NMeC]-NH2; thioether N-12), the Kd (Human Glypican3-Fc) is reported as 0.2 nM.

`CC[C@H](C)[C@@H]1NC(=O)[C@H](Cc2ccc(C(=O)O)cc2)NC(=O)[C@H](CCC(N)=O)N(C)C(=O)[C@H](CC(=O)O)NC(=O)[C@H](CCOC)N(C)C(=O)[C@H](CCCCN)N(C)C(=O)CSC[C@@H](C(N)=O)N(C)C(=O)[C@H](Cc2ccc(-c3cnn(C)c3)cc2)NC(=O)CNC(=O)[C@H](Cc2ccc3ccccc3c2)N(C)C(=O)[C@H](Cc2ccc(CC(=O)O)cc2)NC(=O)[C@H]([C@@H](C)CC)NC1=O` [Conjugate 2-48] ({CH2CO}-[NMeK][NMehSer](Me)D[NMeQ][Phe(4-COOH)]II[Phe(4-CH2COOH)][NMe2Nal]G[Phe(4-(1-Me-pyrazol-4-yl))][NMeC]-NH2; thioether N-12) was tested, and the Kd (Human Glypican3-Fc) was 0.5 nM.

`CC[C@H](C)[C@@H]1NC(=O)[C@H]([C@@H](C)OC)NC(=O)[C@H](Cc2ccc(NCC(=O)O)nc2)NC(=O)[C@H](CNC(=O)N2CCN(CC(=O)O)CC2)N(C)C(=O)[C@H](CC(=O)O)NC(=O)[C@H](CCCCNC(=O)N2CCN(CC(=O)O)CC2)N(C)C(=O)[C@H](CCCCN)N(C)C(=O)CSC[C@@H](C(N)=O)N(C)C(=O)[C@H](Cc2ccc(-c3ccccc3)nc2)NC(=O)CNC(=O)[C@H](Cc2ccc3ccncc3c2)N(C)C(=O)[C@H](Cc2ccc(OCC(=O)O)cc2)NC1=O` [Conjugate 2-30] showed a Kd (Human Glypican3-Fc) of 6.6 nM.

`CC[C@H](C)[C@@H]1NC(=O)[C@H]([C@@H](C)OC)NC(=O)[C@H](Cc2ccc(C(=O)O)cc2)NC(=O)[C@H](CC2CCN(CC(=O)O)CC2)N(C)C(=O)[C@H](CC(=O)O)NC(=O)[C@H](CCC(N)=O)N(C)C(=O)[C@H](CCCCN)N(C)C(=O)CSC[C@@H](C(N)=O)N(C)C(=O)[C@H](Cc2ccc(-c3cnn(C)c3)cc2)NC(=O)CNC(=O)[C@H](Cc2ccc3ccccc3c2)N(C)C(=O)[C@H](Cc2ccc(CC(=O)O)cc2)NC1=O` [Conjugate 2-51] ({CH2CO}-[NMeK][NMeQ]D[X2][Phe(4-COOH)]T(Me)I[Phe(4-CH2COOH)][NMe2Nal]G[Phe(4-(1-Me-pyrazol-4-yl))][NMeC]-NH2; thioether N-12) was tested, and the Kd (Human Glypican3-Fc) was 2.5 nM.

`CC[C@H](C)[C@@H]1NC(=O)[C@H](Cc2ccc(C(=O)O)cc2)NC(=O)[C@H](CCCCN)N(C)C(=O)[C@H](CC(=O)O)NC(=O)[C@H](CCC(N)=O)N(C)C(=O)[C@H](CCC(N)=O)N(C)C(=O)CSC[C@@H](C(N)=O)N(C)C(=O)[C@H](Cc2ccc(-c3cnn(C)c3)cc2)NC(=O)CNC(=O)[C@H](Cc2ccc3ccccc3c2)N(C)C(=O)[C@H](Cc2ccc(CC(=O)O)cc2)NC(=O)[C@H]([C@@H](C)CC)NC1=O` [Conjugate 2-52] ({CH2CO}-[NMeQ][NMeQ]D[NMeK][Phe(4-COOH)]II[Phe(4-CH2COOH)][NMe2Nal]G[Phe(4-(1-Me-pyrazol-4-yl))][NMeC]-NH2; thioether N-12) showed a Kd (Human Glypican3-Fc) of 1.6 nM.

Work on `CC[C@H](C)[C@@H]1NC(=O)[C@H]([C@@H](C)OC)NC(=O)[C@H](Cc2ccc(C(=O)O)cc2)NC(=O)[C@H](CCC(N)=O)N(C)C(=O)[C@H](CC(=O)O)NC(=O)[C@H]([C@@H](C)CC)N(C)C(=O)[C@H](CCCCN)N(C)C(=O)CSC[C@@H](C(N)=O)N(C)C(=O)[C@H](Cc2ccc(-c3ccccc3)nc2)NC(=O)CNC(=O)[C@H](Cc2ccc3ccncc3c2)N(C)C(=O)[C@H](Cc2ccc(OCC(=O)O)cc2)NC1=O` [Conjugate 2-26] ({CH2CO}-[NMeK][NMeI]D[NMeQ][Phe(4-COOH)]T(Me)IY(Carboxymethyl)[NMeAla(isoquinolin-7-yl)]G[3Pal(6-Ph)][NMeC]-NH2; thioether N-12) yielded a Kd (Human Glypican3-Fc) of 0.3 nM.

Work on `CC[C@H](C)[C@@H]1NC(=O)[C@H]([C@@H](C)OC)NC(=O)[C@H](Cc2ccc(C(=O)O)cc2)NC(=O)[C@H](CCC(N)=O)N(C)C(=O)[C@H](CC(=O)O)NC(=O)[C@H](CCOC)N(C)C(=O)[C@H](CCCCNC(=O)N2CCN(CC(=O)O)CC2)N(C)C(=O)CSC[C@@H](C(N)=O)N(C)C(=O)[C@H](Cc2ccc(-c3ccccc3)nc2)NC(=O)CNC(=O)[C@H](Cc2ccc3ccncc3c2)N(C)C(=O)[C@H](Cc2ccc(O)cc2)NC1=O` [Conjugate 2-24] ({CH2CO}-[NMeK]([CO-Piperazinyl(4-CH2COOH)])[NMehSer](Me)D[NMeQ][Phe(4-COOH)]T(Me)IY[NMeAla(isoquinolin-7-yl)]G[3Pal(6-Ph)][NMeC]-NH2; thioether N-12) yielded a Kd (Human Glypican3-Fc) of 0.5 nM.

B1: PLD-45 (peptide)
peptide: {CH2CO}-K[MeHseMe]D[NMeQ][Phe(4-COOH)][TMe]IY[NMeAla(isoquinolin-7-yl)]G[3Pal(6-Ph)][NMeC]-NH2
modifications: thioether N-12; not fully specified (residue 1); printed as MeK-MeHseMe-D-MeQ-F4COO-TMe-I-Y-MeNal27N-G-3Py6Ph-MeC-NH2
notes: SulfoCy5 conjugate
For B1, the Kd [1] was 0.88 nM.

B2: PLD-30 (peptide)
peptide: {CH2CO}-[NMeK](SulfoCy5″)[NMeI]D[NMeQ][Phe(4-COOH)][TMe]I[F4aao][NMeAla(isoquinolin-7-yl)]G[3Pal(6-Ph)][NMeC]-NH2
modifications: thioether N-12
With B2 the Kd [1] was 1.08 nM.

B3: Mod7 (peptide)
peptide: {CH2CO}-[NMeK](SulfoCy5(3))[MeHseMe]D[NMeQ][Phe(4-COOH)][TMe]I[F4aao][NMeAla(isoquinolin-7-yl)]G[3Pal(6-Ph)][NMeC]-NH2
modifications: thioether N-12
In the case of B3, the Kd [1] is reported as 4.2 nM.

B4: Mod3 (peptide)
peptide: {CH2CO}-[NMeA][MeHseMe″]D[NMeQ][Phe(4-COOH)][TMe]I[AEF][NMe2Nal]G[3Pal(6-Ph)][NMeC]-NH2
modifications: thioether N-12; not fully specified (residue 8)
B4 showed a Kd [1] of 0.9 nM.

B5: PLB-60 (peptide)
peptide: KIDQFIIYFGXCG
modifications: not fully specified; MeKAc-MeI-D-MeQ-F4COO-I-I-Y-MeNal27N-G-3Py6Ph-MeC-G-PEG12c-K(biotin)-NH2 by Table 13 (Table 1 prints PEG10c and K at positions 14 and 15 of SEQ ID No. 60); thioether ring from N-terminal acetyl to MeC12
notes: Biotin on the C-terminal tail outside the ring
Molecule B5 has a Kd [1] of 0.11 nM.

B6: PLB-30 (peptide)
peptide: {CH2CO}-[NMeK]([PEG12-Biotin])[NMeI]D[NMeQ][Phe(4-COOH)][TMe]I[F4aao][NMeAla(isoquinolin-7-yl)]G[3Pal(6-Ph)][NMeC]-NH2
modifications: thioether N-12
SMILES: CC[C@H](C)[C@@H]1NC(=O)[C@H]([C@@H](C)OC)NC(=O)[C@H](Cc2ccc(C(=O)O)cc2)NC(=O)[C@H](CCC(N)=O)N(C)C(=O)[C@H](CC(=O)O)NC(=O)[C@H]([C@@H](C)CC)N(C)C(=O)[C@H](CCCCNC(=O)CCOCCOCCOCCOCCOCCOCCOCCOCCOCCOCCOCCOCCNC(=O)CCCC[C@@H]2SC[C@@H]3NC(=O)N[C@@H]32)N(C)C(=O)CSC[C@@H](C(N)=O)N(C)C(=O)[C@H](Cc2ccc(-c3ccccc3)nc2)NC(=O)CNC(=O)[C@H](Cc2ccc3ccncc3c2)N(C)C(=O)[C@H](Cc2ccc(OCC(=O)O)cc2)NC1=O
B6 was tested, and the Kd [1] was 0.75 nM.
